Assays:
Type in all cases: physicochemical
[1] = Solubility assay in media with different pHs; settings: for Solubility (24 hours) / Solubility (2 hours): 37° C.; for Final pH: filtrate of saturated solution
Procedure: (§1) 9 parts of 4 mg of the crystal form A of the compound of formula (II) were weighed and added to a 1.5 mL sample bottle, respectively, and then 1 mL of different media (0.1 mol/L HCl, 0.01 mol/L HCl, pH3.8 buffer solution, pH4.5 buffer solution, pH5.5 buffer solution, pH6.0 buffer solution, pH6.8 buffer solution, pH7.4 buffer solution, and water) were added, respectively. Based on the dissolution situation, the raw material compound was continuously added until a saturated solution was formed. The magnetic bar was added to the above suspension, and the suspension was placed on a magnetic stirrer (37° C., protected from light) and stirred. […] The upper layer of the sample was filtered with a filter membrane, and the pH value of the filtrate was determined. The saturated solubility of the compound was determined by HPLC.
as §1, with “C” for “A”

[2] = Stability assay under illumination, high humidity, high temperature and acceleration (related substances and crystal form); design: Total impurity: unit not given here; settings: for Change of crystal form: 17 days
Procedure: The stability of crystal form of the crystal form A and the crystal form C of the compound of formula (II) under the conditions of illumination, high humidity (92.5% RH), high temperature (60° C.) and acceleration (40° C./75% RH) was investigated.
Illumination test chamber, model: SHH-100GD-2, conditions: 5000±500 lux (visible light) and 90 mw/cm^2 (ultraviolet).
Electrothermal blowing dry box, model: GZX-9140MBE, conditions: 60° C.
Constant temperature and humidity chamber, model: LDS-800Y, conditions: 40° C./75% RH.
Constant temperature and humidity chamber, model: SHH-250SD, conditions: 25° C., 92.5% RH.
An appropriate amount of the crystal form A of the compound of formula (II) was weighed and placed in a dry and clean weighing bottle. The sample was spread into a thin layer, and fully exposed to assay conditions (60° C., 92.5% RH, illumination) and acceleration conditions (40° C./75% RH). After 17 days, the compound was taken out and determined for related substances and crystal form. […]

[3] = Hygroscopicity study by dynamic vapor sorption (DVS)
Procedure: 1.4. Dynamic Vapor Sorption, DVS Method
Instrument model: SMS DVS Advantage dynamic vapor sorption apparatus
Test conditions: The sample (10 to 15 mg) is weighed and placed in a DVS sample pan for testing.
The detailed DVS parameters are as follows:
Equilibration: dm/dt=0.01%/min (The shortest time: 10 min, and the longest time: 180 min)
Drying: Dried for 120 min at 0% RH
RH (%) test gradient: 10%
Range of RH (%) test gradient: 0%-90%-0%
The classification of hygroscopicity evaluation is as follows:
10-15 mg of the crystal form A and the crystal form C of the compound of formula (II) were weighed and placed into a DVS sample pan for testing.

[4] = Water activity assay (stability of the crystal form in water with different activities); settings: methanol/water, stirred two days, XRPD
Procedure: The stability of the crystal form in water with different activities was determined.
About 30 mg of the crystal form A of the compound of formula (II) was weighed and placed in a 1.5 mL liquid phase vial. A magnetic bar was added, and an appropriate amount of water activity agent in a system of methanol and water was pipetted into the liquid phase vial. The suspension sample was mixed well and then placed on a magnetic stirrer (25° C., 700 rpm). After stirring for two days, the wet sample was determined by XRPD.

Solubility (24 hours) ([1]; 0.01 mol/L HCl): 7941 µg/mL
Solubility (conclusion) ([1]; buffer solutions below pH 6.8 and purified water): high solubility
Final pH ([1]; 0.01 mol/L HCl): 3.59
Final pH ([1]; pH 3.8 buffer solution): 3.988
Final pH ([1]; pH 4.5 buffer solution): 4.531
Final pH ([1]; pH 5.5 buffer solution): 5.499
Final pH ([1]; pH 6.0 buffer solution): 5.900
Final pH ([1]; pH 6.8 buffer solution): 6.588
Final pH ([1]; pH 7.4 buffer solution): 7.096
Final pH ([1]; water): 5.296
Evaluation of dissolution property ([1]; merged cell: 0.1 mol/L HCl, 0.01 mol/L HCl, pH 3.8, 4.5, 5.5, 6.0 buffer solutions and water): High solubility
Evaluation of dissolution property ([1]; merged cell: pH 6.8 and pH 7.4 buffer solutions): Low solubility
Solubility (2 hours) ([1]; pH 3.8 buffer solution): 3749 µg/mL
Solubility (24 hours) ([1]; pH 3.8 buffer solution): 3645 µg/mL
Solubility (2 hours) ([1]; pH 4.5 buffer solution): 3824 µg/mL
Solubility (24 hours) ([1]; pH 4.5 buffer solution): 3141 µg/mL
Solubility (2 hours) ([1]; pH 5.5 buffer solution): 3571 µg/mL
Solubility (2 hours) ([1]; pH 6.0 buffer solution): 3785 µg/mL
Solubility (24 hours) ([1]; pH 6.0 buffer solution): 3638 µg/mL
Solubility (2 hours) ([1]; water): 2720 µg/mL
Stability compared with the crystal form D of the maleate of the compound of formula (I) [2]: better
Related substance at relative retention time 0.24 ([2]; 40° C. - 75% RH - 17 days): 0.03
Related substance at relative retention time 0.67 ([2]; 40° C. - 75% RH - 17 days): 0.16
Related substance at relative retention time 0.88 ([2]; 40° C. - 75% RH - 17 days): 0.04
Related substance at relative retention time 0.92 ([2]; 40° C. - 75% RH - 17 days): 0.04
Related substance at relative retention time 1.24 ([2]; 40° C. - 75% RH - 17 days): 0.15
Related substance at relative retention time 1.30 ([2]; 40° C. - 75% RH - 17 days): 0.18
Related substance at relative retention time 1.56 ([2]; 40° C. - 75% RH - 17 days): 0.04
Related substance at relative retention time 1.76 ([2]; 40° C. - 75% RH - 17 days): 0.04
Total impurity ([2]; 40° C. - 75% RH - 17 days): 0.66
Related substance at relative retention time 0.24 ([2]; 60° C. - 17 days): 0.03
Related substance at relative retention time 0.67 ([2]; 60° C. - 17 days): 0.91
Related substance at relative retention time 0.88 ([2]; 60° C. - 17 days): 0.05
Related substance at relative retention time 0.92 ([2]; 60° C. - 17 days): 0.03
Related substance at relative retention time 1.24 ([2]; 60° C. - 17 days): 0.15
Related substance at relative retention time 1.30 ([2]; 60° C. - 17 days): 0.16
Related substance at relative retention time 1.56 ([2]; 60° C. - 17 days): 0.04
Related substance at relative retention time 1.76 ([2]; 60° C. - 17 days): 0.07
Total impurity ([2]; 60° C. - 17 days): 1.44
Related substance at relative retention time 0.24 ([2]; 92.5% RH - 17 days): 0.03
Related substance at relative retention time 0.67 ([2]; 92.5% RH - 17 days): 0.05
Related substance at relative retention time 0.88 ([2]; 92.5% RH - 17 days): 0.04
Related substance at relative retention time 0.92 ([2]; 92.5% RH - 17 days): 0.04
Related substance at relative retention time 1.24 ([2]; 92.5% RH - 17 days): 0.14
Related substance at relative retention time 1.30 ([2]; 92.5% RH - 17 days): 0.18
Related substance at relative retention time 1.56 ([2]; 92.5% RH - 17 days): 0.04
Related substance at relative retention time 1.76 ([2]; 92.5% RH - 17 days): 0.02
Total impurity ([2]; 92.5% RH - 17 days): 0.54
Related substance at relative retention time 0.24 ([2]; Illumination - 17 days): 0.03
Related substance at relative retention time 0.67 ([2]; Illumination - 17 days): 0.07
Related substance at relative retention time 0.88 ([2]; Illumination - 17 days): 0.04
Related substance at relative retention time 0.92 ([2]; Illumination - 17 days): 0.05
Related substance at relative retention time 1.24 ([2]; Illumination - 17 days): 0.13
Related substance at relative retention time 1.30 ([2]; Illumination - 17 days): 0.17
Related substance at relative retention time 1.56 ([2]; Illumination - 17 days): 0.04
Total impurity ([2]; Illumination - 17 days): 0.46
Related substance at relative retention time 0.24 ([2]; Initial sample): 0.03
Related substance at relative retention time 0.67 ([2]; Initial sample): 0.05
Related substance at relative retention time 0.88 ([2]; Initial sample): 0.03
Related substance at relative retention time 1.24 ([2]; Initial sample): 0.15
Related substance at relative retention time 1.30 ([2]; Initial sample): 0.18
Related substance at relative retention time 1.56 ([2]; Initial sample): 0.04
Total impurity ([2]; Initial sample): 0.53
Change of crystal form ([2]; acceleration (40° C./75% RH)): not changed
Change of crystal form ([2]; high humidity (92.5% RH)): changed
Change of crystal form ([2]; high temperature (60° C.)): not changed
Change of crystal form ([2]; illumination): not changed
ΔW (weight increase by moisture absorption) ([3]; 25° C. and 80% RH): 1.329%
Classification of hygroscopicity ([3]; 25° C., 80% RH): slightly hygroscopic
Crystal form change in water activity assay ([4]; water activity 0.1 and 0.3, 25° C.): not changed
Crystal form change in water activity assay ([4]; water activity greater than 0.3, 25° C.): changed to the crystal form C
Structure (SMILES): COc1cc2ncnc(Nc3cccc(Cl)c3F)c2cc1N1CC2(CN(C)C2)OC1=O.Cc1ccc(S(=O)(=O)O)cc1 [crystal form A of the compound of formula (II)]
Formation of degradation impurity (conclusion) ([2]; illumination, high temperature, high humidity, acceleration): produces a degradation impurity only under the condition of high temperature
